{"source": "patent US20040242650A1", "about": "“Extended dosing regimen” (priority 2003, published 2004)", "details_in_all_cases": "for Tumor Volume Day 38: mean ± SEM; for % ILS: median, time to 1 cc vs vehicle; for % T/C Day 38: treated vs vehicle", "key": {"[1]": {"test_system": "Calu-6 lung subcutaneous flank xenografts", "experiment": "Calu-6 flank xenograft model", "type": "in vivo, male nude mice", "experimental": "(§1) Efficacy of N-[2-[(4-hydroxyphenyl)amino]-3-pyridyl]-4-methoxybenzenesulfonamide was tested in Calu-6 NSCL, MDA-MB-468 breast and HT-29 colon carcinoma xenografts grown in nude mice. The objectives were determination of the efficacy of N-[2-[(4-hydroxyphenyl)amino]-3-pyridyl]-4-methoxybenzenesulfonamide as a single agent and in combination with cisplatin in the Calu-6 NSCL flank xenograft model; determination the efficacy of N-[2-[(4-hydroxyphenyl)amino]-3-pyridyl]-4-methoxybenzenesulfonamide as a single agent and in combination with docetaxel in the MDA-MB 468 breast flank xenograft model; determination of the efficacy of N-[2-[(4-hydroxyphenyl)amino]-3-pyridyl]-4-methoxybenzenesulfonamide as a single agent and in combination with 5-FU in the HT-29 colon flank xenograft model; and comparison the efficacy of N-[2-[(4-hydroxyphenyl)amino]-3-pyridyl]-4-methoxybenzenesulfonamide administered on 2 different schedules (q.d. vs b.i.d.) in the Calu-6 and HT-29 xenogaft model.\n(§2) Following inoculation of tumor cells, tumors were passaged three times in mice before using the fragments to generate single cell suspensions. Multiple animals were used as donors. Single cell suspensions were generated by homogenizing the minced tumor tissue in RPMI 1640 media. Cell suspensions were washed three times to remove debris and other foreign materials. Viable cells were counted by trypan blue exclusion technique using a hemocytometer. Mice were injected subcutaneously with 0.5 ml of the cell suspension containing 1×10^6 cells.\nTumor cells were inoculated s.c. into male nude mice on day 0. On day 10, mice bearing established tumors were size matched at ˜233 mm^3 and placed into the following groups:\n(§3) N-[2-[(4-hydroxyphenyl)amino]-3-pyridyl]-4-methoxybenzenesulfonamide—100, and 75 mg/kg/day (p.o., q.d., 5 days on, 5 days off ×2)\nN-[2-[(4-hydroxyphenyl)amino]-3-pyridyl]-4-methoxybenzenesulfonamide—50 and 0 mg/kg/day (p.o., q.d. ×21 or p.o., b.i.d. ×21)\nCisplaitn—20, 10, 8 and 0 mg/kg/day (ip, qd ×1)\nCombination Therapy—100/10, 75/10, 100/8 mg/kg/day (p.o., q.d., 5 days on, 5 days off ×2/ip, qd ×1), 50/10 mg/kg/day (p.o., q.d., ×21/ ip, qd ×1)"}, "[2]": {"test_system": "HT-29 colon subcutaneous flank xenografts", "experiment": "HT-29 flank xenograft model", "type": "in vivo, nude mice", "experimental": "as §1, §2\n(§4) Tumor cells derived from serially passaged tumor fragments were inoculated s.c. in female nude mice on day 0. On day 10, mice bearing established tumors were size matched at ˜236 mm^3 and placed into the following groups:\n1. N-[2-[(4-hydroxyphenyl)amino]-3-pyridyl]-4-methoxybenzenesulfonamide—100, and 75 mg/kg/day (p.o., q.d., 5 days on, 5 days off ×2)\n2. N-[2-[(4-hydroxyphenyl)amino]-3-pyridyl]-4-methoxybenzenesulfonamide—50 and 0 mg/kg/day (p.o., q.d. ×21 or p.o., b.i.d. ×21)\nCombination Therapy—100/30, 75/30, mg/kg/day (p.o., q.d., 5 days on, 5 days off ×2/ip, qd ×1), 50/10 mg/kg/day (p.o., q.d., ×21/ip, qd ×1)."}, "[3]": {"test_system": "MDA-MB-468 breast subcutaneous flank xenografts", "experiment": "MDA-MB-468 breast flank xenograft model", "type": "in vivo, female nude mice", "experimental": "as §1, §2\nas §4, with “Efficacy of N-[2-[(4-hydroxyphenyl)amino]-3-pyridyl]-4-methoxybenzenesulfonamide in the MDA-MB-468 Breast Flank Xenograft Model. Tumor” for “Tumor”, “˜231” for “˜236”\nas §3\nN-[2-[(4-hydroxyphenyl)amino]-3-pyridyl]-4-methoxybenzenesulfonamide—50 and 0 mg/kg/day (p.o., q.d. ×21)\nDocetaxel—40, 33.3, 16.7 and 0 mg/kg/day (i.v., qd ×1)"}, "[4]": {"details": "75 mg/kg/day p.o., q.d., (5 days on, 5 days off) x2"}, "[5]": {"details": "100 mg/kg/day p.o., q.d., (5 days on, 5 days off) x2"}, "[6]": {"details": "100 and 75 mg/kg/day, 5 days on, 5 days off for 2 cycles"}}, "note": "Marks after values point to notes of the source that are not given here."}
{"compound": "COc1ccc(S(=O)(=O)Nc2cccnc2Nc2ccc(O)cc2)cc1", "note": "[N-[2-[(4-hydroxyphenyl)amino]-3-pyridyl]-4-methoxybenzenesulfonamide]", "values": [{"measurement": "Tumor Volume Day 38", "setting": "[1]; 50 mg/kg/day p.o., b.i.d x21", "value": "1534 ± 47", "unit": "mm^3"}, {"measurement": "% ILS", "setting": "[1]; 50 mg/kg/day p.o., b.i.d x21", "value": "58*** %"}, {"measurement": "% T/C Day 38", "setting": "[1]; 50 mg/kg/day p.o., b.i.d x21", "value": "56*** %"}, {"measurement": "Tumor Volume Day 38", "setting": "[1]; 50 mg/kg/day p.o., q.d x21", "value": "1455 ± 65", "unit": "mm^3"}, {"measurement": "% ILS", "setting": "[1]; 50 mg/kg/day p.o., q.d x21", "value": "58*** %"}, {"measurement": "% T/C Day 38", "setting": "[1]; 50 mg/kg/day p.o., q.d x21", "value": "54*** %"}, {"measurement": "Tumor Volume Day 38", "setting": "[1]; [4]", "value": "1406 ± 65", "unit": "mm^3"}, {"measurement": "% ILS", "setting": "[1]; [4]", "value": "58*** %"}, {"measurement": "% T/C Day 38", "setting": "[1]; [4]", "value": "50*** %"}, {"measurement": "Tumor Volume Day 38", "setting": "[1]; [5]", "value": "1022 ± 48", "unit": "mm^3"}, {"measurement": "% ILS", "setting": "[1]; [5]", "value": "65*** %"}, {"measurement": "% T/C Day 38", "setting": "[1]; [5]", "value": "37*** %"}, {"measurement": "antitumor activity as a single agent", "setting": "[1]; [6]", "value": "significant antitumor activity"}, {"measurement": "efficacy of combination compared to single agents alone (summary)", "setting": "[1]; in combination with cisplatin", "value": "equal to or greater than additive efficacy"}, {"measurement": "response in combination with cisplatin", "setting": "[1]; in combination with cisplatin, all three doses tested", "value": "greater than additive responses"}, {"measurement": "efficacy q.d. vs b.i.d. (summary)", "setting": "[1]; q.d. or b.i.d. for 21 days", "value": "equal efficacy"}, {"measurement": "efficacy as a single agent (summary)", "setting": "[1]; single agent", "value": "dose-dependent efficacy"}, {"measurement": "Tumor Volume Day 38", "setting": "[2]; 50 mg/kg/day p.o., b.i.d x21", "value": "1158 ± 62", "unit": "mm^3"}, {"measurement": "% ILS", "setting": "[2]; 50 mg/kg/day p.o., b.i.d x21", "value": "36*** %"}, {"measurement": "% T/C Day 38", "setting": "[2]; 50 mg/kg/day p.o., b.i.d x21", "value": "51*** %"}, {"measurement": "Tumor Volume Day 38", "setting": "[2]; 50 mg/kg/day p.o., q.d x21", "value": "1244 ± 55", "unit": "mm^3"}, {"measurement": "% ILS", "setting": "[2]; 50 mg/kg/day p.o., q.d x21", "value": "36*** %"}, {"measurement": "% T/C Day 38", "setting": "[2]; 50 mg/kg/day p.o., q.d x21", "value": "55*** %"}, {"measurement": "Tumor Volume Day 38", "setting": "[2]; [4]", "value": "942 ± 46", "unit": "mm^3"}, {"measurement": "% ILS", "setting": "[2]; [4]", "value": "50*** %"}, {"measurement": "% T/C Day 38", "setting": "[2]; [4]", "value": "43*** %"}, {"measurement": "Tumor Volume Day 38", "setting": "[2]; [5]", "value": "619 ± 40", "unit": "mm^3"}, {"measurement": "% ILS", "setting": "[2]; [5]", "value": "75*** %"}, {"measurement": "% T/C Day 38", "setting": "[2]; [5]", "value": "28*** %"}, {"measurement": "antitumor activity as a single agent", "setting": "[2]; [6]", "value": "significant antitumor activity"}, {"measurement": "efficacy of combination compared to single agents alone (summary)", "setting": "[2]; in combination with 5-FU", "value": "equal to or greater than additive efficacy"}, {"measurement": "response in combination with 5-FU", "setting": "[2]; in combination with 5-FU at 30 mg/kg/day, at the higher doses", "value": "additive responses"}, {"measurement": "efficacy q.d. vs b.i.d. (summary)", "setting": "[2]; q.d. or b.i.d. for 21 days", "value": "equal efficacy"}, {"measurement": "efficacy as a single agent (summary)", "setting": "[2]; single agent", "value": "dose-dependent efficacy"}, {"measurement": "Tumor Volume Day 38", "setting": "[3]; 50 mg/kg/day p.o., q.d x21", "value": "1244 ± 59", "unit": "mm^3"}, {"measurement": "% ILS", "setting": "[3]; 50 mg/kg/day p.o., q.d x21", "value": "41*** %"}, {"measurement": "% T/C Day 38", "setting": "[3]; 50 mg/kg/day p.o., q.d x21", "value": "46*** %"}, {"measurement": "Tumor Volume Day 38", "setting": "[3]; [4]", "value": "851 ± 55", "unit": "mm^3"}, {"measurement": "% ILS", "setting": "[3]; [4]", "value": "52*** %"}, {"measurement": "% T/C Day 38", "setting": "[3]; [4]", "value": "33*** %"}, {"measurement": "Tumor Volume Day 38", "setting": "[3]; [5]", "value": "638 ± 48", "unit": "mm^3"}, {"measurement": "% ILS", "setting": "[3]; [5]", "value": "78*** %"}, {"measurement": "% T/C Day 38", "setting": "[3]; [5]", "value": "25*** %"}, {"measurement": "antitumor activity as a single agent", "setting": "[3]; 100 and 75 mg/kg/day 5 days on, 5 days off for 2 cycles, 50 mg/kg/day daily", "value": "dose-dependent antitumor activity"}, {"measurement": "efficacy of combination compared to single agents alone (summary)", "setting": "[3]; in combination with docetaxel", "value": "equal to or greater than additive efficacy"}, {"measurement": "response in combination with docetaxel", "setting": "[3]; in combination with docetaxel at 33.3 mg/kg/day, all three doses tested", "value": "greater than additive responses"}, {"measurement": "efficacy as a single agent (summary)", "setting": "[3]; single agent", "value": "dose-dependent efficacy"}]}
